Results from PubChem BioAssay (NCI).
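Where inhibition never reached the appropriate level, the endpoint shown equals the highest concentration tested. Otherwise, values were interpolated linearly from a five-concentration, 48-hour dose response in 96-well plates. GI50: concentration for 50% inhibition of growth. TGI: total growth inhibition.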

Assays:
Assay in all cases: inhibition of tumour cell growth, NCI panel, 48 h
[1] = test system: SF-539 CNS
[2] = test system: SW-620 colon
[3] = test system: MDA-MB-435
[4] = test system: OVCAR-3 ovarian
[5] = test system: UO-31 renal
[6] = test system: SF-268 CNS
[7] = test system: BT-549 breast
[8] = test system: UACC-62 melanoma
[9] = test system: MDA-MB-231 breast
[10] = test system: NCI/ADR-RES ovarian
[11] = test system: TK-10 renal
[12] = test system: HOP-92 NSCLC
[13] = test system: HL-60(TB) leukemia
[14] = test system: OVCAR-8 ovarian
[15] = test system: COLO 205 colon
[16] = test system: 786-0 renal
[17] = test system: LOX IMVI melanoma
[18] = test system: HOP-62 NSCLC
[19] = test system: OVCAR-5 ovarian
[20] = test system: NCI-H226 lung
[21] = test system: HT29 colon
[22] = test system: HS 578T breast
[23] = test system: M14 melanoma
[24] = test system: KM12 colon
[25] = test system: MOLT-4 leukemia
[26] = test system: UACC-257 melanoma
[27] = test system: RPMI-8226 leukemia
[28] = test system: T-47D breast
[29] = test system: SK-OV-3 ovarian
[30] = test system: HCT-116 colon
[31] = test system: ACHN renal
[32] = test system: IGROV1 ovarian
[33] = test system: MCF7 breast
[34] = test system: HCC-2998 colon
[35] = test system: PC-3 prostate
[36] = test system: K-562 leukemia
[37] = test system: CAKI-1 renal
[38] = test system: SR leukemia
[39] = test system: NCI-H23 lung
[40] = test system: SK-MEL-5 melanoma
[41] = test system: RXF 393 renal
[42] = test system: NCI-H460 lung
[43] = test system: SN12C renal
[44] = test system: MALME-3M melanoma
[45] = test system: SK-MEL-28 melanoma
[46] = test system: EKVX NSCLC
[47] = test system: HCT-15 colon
[48] = test system: SNB-75 CNS
[49] = test system: SF-295 CNS
[50] = test system: CCRF-CEM leukemia
[51] = test system: NCI-H522 lung
[52] = test system: SK-MEL-2 melanoma
[53] = test system: OVCAR-4 ovarian
[54] = test system: DU-145 prostate
[55] = test system: U251 CNS
[56] = test system: A549 NSCLC
[57] = test system: A498 renal
[58] = test system: SNB-19 CNS

For Fc1cnc(NC2CC2)nc1-c1cnc2ccc(N3CCOCC3)cn12, the GI50 [1] was 164 nM, the TGI [1] was 538 nM and the GI50 [2] was 292 nM. For the same molecule, the TGI [2] was 12400 nM, the GI50 [3] was 272 nM and the TGI [3] was 992 nM. The GI50 [4] was 258 nM, the TGI [4] was greater than 32600 nM and the GI50 [5] was 282 nM. The TGI [5] was 11100 nM, the GI50 [6] was 296 nM and the TGI [6] was 6850 nM. For the same molecule, the GI50 [7] was 230 nM, the TGI [7] was 3350 nM and the GI50 [8] was 200 nM. For the same molecule, the TGI [8] was 699 nM, the GI50 [9] was 203 nM and the TGI [9] was 1680 nM. The GI50 [10] was 276 nM, the TGI [10] was 4700 nM and the GI50 [11] was 357 nM. It also gave a TGI [11] of 54200 nM, a GI50 [12] of 116 nM and a TGI [12] of 461 nM. The GI50 [13] was 304 nM, the TGI [13] was 1010 nM and the GI50 [14] was 284 nM. For the same molecule, the TGI [14] was greater than 73900 nM, the GI50 [15] was 144 nM and the TGI [15] was 428 nM. For the same molecule, the GI50 [16] was 322 nM, the TGI [16] was 22800 nM and the GI50 [17] was 90 nM. It also gave a TGI [17] of 12500 nM, a GI50 [18] of 306 nM and a TGI [18] greater than 44800 nM. For the same molecule, the GI50 [19] was 188 nM, the TGI [19] was 3130 nM and the GI50 [20] was 201 nM. For the same molecule, the TGI [20] was 1390 nM, the GI50 [21] was 251 nM and the TGI [21] was greater than 58300 nM. For the same molecule, the GI50 [22] was 265 nM, the TGI [22] was 2460 nM and the GI50 [23] was 279 nM. For the same molecule, the TGI [23] was 1010 nM, the GI50 [24] was 237 nM and the TGI [24] was 3970 nM. For the same molecule, the GI50 [25] was 346 nM, the GI50 [26] was 380 nM and the TGI [26] was 11200 nM. It also gave a GI50 [27] of 292 nM, a TGI [27] of 1710 nM and a GI50 [28] of 299 nM. It also gave a TGI [28] of 18600 nM, a GI50 [29] of 781 nM and a TGI [29] of 81900 nM. It also gave a GI50 [30] of 160 nM, a TGI [30] greater than 56300 nM and a GI50 [31] of 160 nM. It also gave a TGI [31] of 10600 nM, a GI50 [32] of 268 nM and a TGI [32] of 17500 nM. The GI50 [33] was 272 nM, the TGI [33] was 6910 nM and the GI50 [34] was 305 nM. For the same molecule, the TGI [34] was 2620 nM, the GI50 [35] was 276 nM and the TGI [35] was 8600 nM. It also gave a GI50 [36] of 441 nM, a TGI [36] greater than 100000 nM and a GI50 [37] of 122 nM. For the same molecule, the TGI [37] was 12500 nM, the GI50 [38] was 128 nM and the GI50 [39] was 242 nM. It also gave a TGI [39] of 957 nM, a GI50 [40] of 231 nM and a TGI [40] of 706 nM. It also gave a GI50 [41] of 93.2 nM, a TGI [41] of 303 nM and a GI50 [42] of 291 nM. For the same molecule, the TGI [42] was 10200 nM, the GI50 [43] was 242 nM and the TGI [43] was 5570 nM. It also gave a GI50 [44] of 340 nM, a TGI [44] of 1060 nM and a GI50 [45] of 252 nM. For the same molecule, the TGI [45] was 1270 nM, the GI50 [46] was 297 nM and the TGI [46] was 3460 nM. For the same molecule, the GI50 [47] was 266 nM, the TGI [47] was 14500 nM and the GI50 [48] was 158 nM. It also gave a TGI [48] of 475 nM, a GI50 [49] of 299 nM and a TGI [49] of 12100 nM. The GI50 [50] was 325 nM, the TGI [50] was greater than 100000 nM and the GI50 [51] was 374 nM. It also gave a TGI [51] of 6110 nM, a GI50 [52] of 218 nM and a TGI [52] of 641 nM. The GI50 [53] was 306 nM, the TGI [53] was 3060 nM and the GI50 [54] was 323 nM. It also gave a TGI [54] greater than 60900 nM, a GI50 [55] of 271 nM and a TGI [55] greater than 42400 nM. For the same molecule, the GI50 [56] was 292 nM, the TGI [56] was greater than 64300 nM and the GI50 [57] was 168 nM. It also gave a TGI [57] of 430 nM, a GI50 [58] of 290 nM and a TGI [58] of 17700 nM.
